According to PubChem BioAssay (NCI):
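Growth conditions: 96-well plates. Treatment: test compound, 48 hours, 5 concentrations. Analysis: linear interpolation between bracketing concentrations; unreached endpoints set to highest concentration. The concentration for 50% growth inhibition is given as GI50. The concentration for full growth arrest is given as TGI.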

What was measured:
Assay in all cases: NCI-60 cell line screen, 48 h
PC-3 prostate = system: PC-3 prostate
SN12C renal = system: SN12C renal
NCI-H23 lung = system: NCI-H23 lung
A498 renal = system: A498 renal
OVCAR-5 ovarian = system: OVCAR-5 ovarian
ACHN renal = system: ACHN renal
MCF7 breast = system: MCF7 breast
M14 melanoma = system: M14 melanoma
SF-539 CNS = system: SF-539 CNS
IGROV1 ovarian = system: IGROV1 ovarian
OVCAR-3 ovarian = system: OVCAR-3 ovarian
MOLT-4 leukemia = system: MOLT-4 leukemia
MDA-MB-231 breast = system: MDA-MB-231 breast
OVCAR-8 ovarian = system: OVCAR-8 ovarian
HCT-116 colon = system: HCT-116 colon
COLO 205 colon = system: COLO 205 colon
SF-268 CNS = system: SF-268 CNS
MDA-MB-435 = system: MDA-MB-435
SK-MEL-2 melanoma = system: SK-MEL-2 melanoma
U251 CNS = system: U251 CNS
HCT-15 colon = system: HCT-15 colon
HOP-62 NSCLC = system: HOP-62 NSCLC
SW-620 colon = system: SW-620 colon
SK-MEL-28 melanoma = system: SK-MEL-28 melanoma
A549 NSCLC = system: A549 NSCLC
BT-549 breast = system: BT-549 breast
SK-OV-3 ovarian = system: SK-OV-3 ovarian
HCC-2998 colon = system: HCC-2998 colon
LOX IMVI melanoma = system: LOX IMVI melanoma
CAKI-1 renal = system: CAKI-1 renal
HL-60(TB) leukemia = system: HL-60(TB) leukemia
UACC-257 melanoma = system: UACC-257 melanoma
SR leukemia = system: SR leukemia
HS 578T breast = system: HS 578T breast
HT29 colon = system: HT29 colon
MALME-3M melanoma = system: MALME-3M melanoma
NCI/ADR-RES ovarian = system: NCI/ADR-RES ovarian
NCI-H522 lung = system: NCI-H522 lung
TK-10 renal = system: TK-10 renal
CCRF-CEM leukemia = system: CCRF-CEM leukemia
KM12 colon = system: KM12 colon
SNB-75 CNS = system: SNB-75 CNS
DU-145 prostate = system: DU-145 prostate
SF-295 CNS = system: SF-295 CNS
UACC-62 melanoma = system: UACC-62 melanoma
RXF 393 renal = system: RXF 393 renal
NCI-H460 lung = system: NCI-H460 lung
SK-MEL-5 melanoma = system: SK-MEL-5 melanoma
SNB-19 CNS = system: SNB-19 CNS
K-562 leukemia = system: K-562 leukemia
T-47D breast = system: T-47D breast
UO-31 renal = system: UO-31 renal
HOP-92 NSCLC = system: HOP-92 NSCLC
786-0 renal = system: 786-0 renal

Nc1nc2c(s1)CCc1c-2c(Br)n(Cc2ccccc2)c1Br
GI50 (PC-3 prostate): 12.8 µM | TGI (PC-3 prostate): 45.5 µM | GI50 (SN12C renal): 13.5 µM | TGI (SN12C renal): 31.2 µM | GI50 (NCI-H23 lung): 13.8 µM | TGI (NCI-H23 lung): 40.8 µM | GI50 (A498 renal): 17.3 µM | TGI (A498 renal): 33.8 µM | GI50 (OVCAR-5 ovarian): 19.8 µM | TGI (OVCAR-5 ovarian): 39.3 µM | GI50 (ACHN renal): 2.22 µM | TGI (ACHN renal): 5.23 µM | GI50 (MCF7 breast): 11.9 µM | TGI (MCF7 breast): 28.6 µM | GI50 (M14 melanoma): 14.5 µM | TGI (M14 melanoma): 30.2 µM | GI50 (SF-539 CNS): 15.4 µM | TGI (SF-539 CNS): 29.2 µM | GI50 (IGROV1 ovarian): 14.1 µM | TGI (IGROV1 ovarian): 37.5 µM | GI50 (OVCAR-3 ovarian): 3.9 µM | TGI (OVCAR-3 ovarian): 13.8 µM | GI50 (MOLT-4 leukemia): 2.33 µM | TGI (MOLT-4 leukemia): 26.7 µM | GI50 (MDA-MB-231 breast): 14.1 µM | TGI (MDA-MB-231 breast): 48.7 µM | GI50 (OVCAR-8 ovarian): 6.48 µM | TGI (OVCAR-8 ovarian): 64.2 µM | GI50 (HCT-116 colon): 2.53 µM | TGI (HCT-116 colon): 6.43 µM | GI50 (COLO 205 colon): 2.53 µM | TGI (COLO 205 colon): 5.13 µM | GI50 (SF-268 CNS): 14.6 µM | TGI (SF-268 CNS): 39 µM | GI50 (MDA-MB-435): 8.57 µM | TGI (MDA-MB-435): 30.7 µM | GI50 (SK-MEL-2 melanoma): 21.6 µM | TGI (SK-MEL-2 melanoma): 43.4 µM | GI50 (U251 CNS): 14 µM | TGI (U251 CNS): 28.2 µM | GI50 (HCT-15 colon): 3.98 µM | TGI (HCT-15 colon): 15.9 µM | GI50 (HOP-62 NSCLC): 18 µM | TGI (HOP-62 NSCLC): 33.6 µM | GI50 (SW-620 colon): 3.31 µM | TGI (SW-620 colon): 9.74 µM | GI50 (SK-MEL-28 melanoma): 12.9 µM | TGI (SK-MEL-28 melanoma): 26.2 µM | GI50 (A549 NSCLC): 17.2 µM | TGI (A549 NSCLC): > 100 µM | GI50 (BT-549 breast): 15.1 µM | TGI (BT-549 breast): 30.2 µM | GI50 (SK-OV-3 ovarian): 23.6 µM | TGI (SK-OV-3 ovarian): 53.7 µM | GI50 (HCC-2998 colon): 18 µM | TGI (HCC-2998 colon): 33.7 µM | GI50 (LOX IMVI melanoma): 3.98 µM | TGI (LOX IMVI melanoma): 19.7 µM | GI50 (CAKI-1 renal): 3.14 µM | TGI (CAKI-1 renal): 12.1 µM | GI50 (HL-60(TB) leukemia): 5.64 µM | TGI (HL-60(TB) leukemia): 37.1 µM | GI50 (UACC-257 melanoma): 12.1 µM | TGI (UACC-257 melanoma): 25.6 µM | GI50 (SR leukemia): 3.41 µM | TGI (SR leukemia): > 100 µM | GI50 (HS 578T breast): 25.7 µM | TGI (HS 578T breast): 93.8 µM | GI50 (HT29 colon): 10.9 µM | TGI (HT29 colon): 27.7 µM | GI50 (MALME-3M melanoma): 3.76 µM | TGI (MALME-3M melanoma): 15.4 µM | GI50 (NCI/ADR-RES ovarian): 23.7 µM | TGI (NCI/ADR-RES ovarian): 87.7 µM | GI50 (NCI-H522 lung): 2.04 µM | TGI (NCI-H522 lung): 4.63 µM | GI50 (TK-10 renal): 4.41 µM | TGI (TK-10 renal): 14.9 µM | GI50 (CCRF-CEM leukemia): 0.534 µM | TGI (CCRF-CEM leukemia): 11.9 µM | GI50 (KM12 colon): 14 µM | TGI (KM12 colon): 33.3 µM | GI50 (SNB-75 CNS): 14.5 µM | TGI (SNB-75 CNS): 33.1 µM | GI50 (DU-145 prostate): 16.1 µM | TGI (DU-145 prostate): 37.3 µM | GI50 (SF-295 CNS): 16.6 µM | TGI (SF-295 CNS): 33.4 µM | GI50 (UACC-62 melanoma): 10.4 µM | TGI (UACC-62 melanoma): 24.7 µM | GI50 (RXF 393 renal): 2.23 µM | TGI (RXF 393 renal): 6.38 µM | GI50 (NCI-H460 lung): 21.3 µM | TGI (NCI-H460 lung): 52.9 µM | GI50 (SK-MEL-5 melanoma): 14.3 µM | TGI (SK-MEL-5 melanoma): 30.2 µM | GI50 (SNB-19 CNS): 23.3 µM | TGI (SNB-19 CNS): 86.4 µM | GI50 (K-562 leukemia): 3.55 µM | TGI (K-562 leukemia): 19.3 µM | GI50 (T-47D breast): 3.17 µM | TGI (T-47D breast): 10.6 µM | GI50 (UO-31 renal): 1.8 µM | TGI (UO-31 renal): 4.41 µM | GI50 (HOP-92 NSCLC): 4.43 µM | TGI (HOP-92 NSCLC): 23.9 µM | GI50 (786-0 renal): 7.11 µM | TGI (786-0 renal): 22.9 µM
